# Experimental data as given in paper PMC13266999, “Designing Antibiotics with Inherent Resistance to Efflux as a Strategy to Revive Discovery against Multidrug-Resistant Pathogens” (Journal of Medicinal Chemistry, 2026).
# Like-named read-outs stand apart in the source and are kept apart here.
# How the values were obtained:
# [1] = system: E. faecalis; test: MIC (microbroth dilution); format: cell-based, Enterococcus faecalis
# Protocol: (§1) All bacteria were maintained on tryptic soy agar (TSA), except Streptococcus spp., which were maintained on Columbia agar plates containing 5% horse blood. […] Bacteria were grown to stationary phase in liquid culture overnight, with shaking at 200 rpm, before being back diluted to the relevant starting concentration for each assay below. MICs were measured by the microbroth dilution method. […] Absorbance at OD600 was read on a CLARIOstar spectrophotometer (BMG Labtech) and the MIC was defined as the minimum concentration of compound where no visible growth was detected. […] MICs were also performed in the presence of the outer membrane permeator, polymyxin b nonapeptide (PMBN) following the same MIC method but with the following variation. The 2-fold dilution series of compound was prepared as above, then 50 μL of PMBN at a final concentration of 30 μg/mL was added to relevant wells, while 50 μL/well of blank media was added to the remaining wells. Bacteria were then added at 50 μL/well for a starting concentration as above. […] The MICs were read and defined as above. All animal procedures were performed by the contract research organization Pharmacology Discovery Services Taiwan in accordance with the Guide for the Care and Use of Laboratory Animals. The procedures were approved by the Institutional Ethics Committee of Pharmacology Discovery Services Taiwan, Ltd. (approval no. AB127662), in compliance with animal welfare legislation in Taiwan.
# [2] = system: E. faecium; test: MIC (microbroth dilution); format: cell-based, Enterococcus faecium
# Protocol: (§2) All bacteria were maintained on tryptic soy agar (TSA), except Streptococcus spp., which were maintained on Columbia agar plates containing 5% horse blood. All bacterial assays were carried out in tryptic soy broth (TSB), except for Streptococcus spp. which were grown in cation-adjusted Mueller Hinton broth containing 2.5% lysed horse blood. Bacteria were grown to stationary phase in liquid culture overnight, with shaking at 200 rpm, before being back diluted to the relevant starting concentration for each assay below. MICs were measured by the microbroth dilution method. […] Absorbance at OD600 was read on a CLARIOstar spectrophotometer (BMG Labtech) and the MIC was defined as the minimum concentration of compound where no visible growth was detected. The compounds were prepared as a DMSO stock and equivalent concentrations of DMSO had no effect on bacterial growth. MICs were also performed in the presence of the outer membrane permeator, polymyxin b nonapeptide (PMBN) following the same MIC method but with the following variation. The 2-fold dilution series of compound was prepared as above, then 50 μL of PMBN at a final concentration of 30 μg/mL was added to relevant wells, while 50 μL/well of blank media was added to the remaining wells. Bacteria were then added at 50 μL/well for a starting concentration as above. Thirty μg/mL of PMBN had no effect on bacterial growth. The MICs were read and defined as above. All animal procedures were performed by the contract research organization Pharmacology Discovery Services Taiwan in accordance with the Guide for the Care and Use of Laboratory Animals. The procedures were approved by the Institutional Ethics Committee of Pharmacology Discovery Services Taiwan, Ltd. (approval no. AB127662), in compliance with animal welfare legislation in Taiwan.
# [3] = system: S. haemolyticus; test: MIC (microbroth dilution); format: cell-based, Staphylococcus haemolyticus; settings: SH324
# Protocol: as §2
# [4] = system: Acinetobacter baumannii; test: MIC (microbroth dilution); format: cell-based
# Protocol: as §2
# [5] = system: Pseudomonas aeruginosa; test: MIC (microbroth dilution); format: cell-based
# Protocol: as §2
# [6] = system: E. coli; test: MIC (microbroth dilution); format: cell-based; settings: Escherichia coli
# Protocol: as §1
# [7] = system: A. baumannii; test: A. baumannii efflux chequerboard assay; format: cell-based, Acinetobacter baumannii; settings: for MIC: Acinetobacter baumannii
# Protocol: Checkerboard assays were performed by preparing two separate 2-fold dilution series of compounds in two 96 well plates, one horizontally, one vertically. […] Plates were incubated at 37 C for 20 h and the absorbance (OD600) was read on a CLARIOstar spectrophotometer (BMG Labtech). The fractional inhibitory concentration was calculated as follows: ΣFIC = [(MIC of A in combination)/(MIC of A alone)] + [(MIC of B in combination)/(MIC of B alone)].
# [8] = system: S. aureus NCTC 13616; test: Time-kill assay; format: cell-based; settings: 4x MIC, 24 hours
# Protocol: Time-kill assays were performed as defined previously.
compound,measurement,setting,value
"O=C(O)c1cn(C2CC2)c2cc(N3CCNCC3)c(F)cc2c1=O [Ciprofloxacin, ciprofloxacin, reference compound]",MIC,[1]; EF602,64 µg/mL
same,MIC,"[1]; Enterococcus faecalis, NCTC775, NCTC 775, read-out: MIC",1 µg/mL
same,MIC,"[1]; Enterococcus faecalis, NCTC12204, NCTC 12204, read-out: MIC",1 µg/mL
same,MIC,[1]; NCTC 775,1 µg/mL
same,MIC,[2]; EF205,128 µg/mL
same,MIC,[2]; NCTC 12204,1 µg/mL
same,MIC,[3],16 µg/mL
same,MIC,"[4]; Acinetobacter baumannii, 86, oxa23",128 µg/mL
same,MIC,"[4]; Acinetobacter baumannii, 96, oxa23",128 µg/mL
same,MIC,"[4]; Acinetobacter baumannii, A318",32 µg/mL
same,MIC,"[4]; Acinetobacter baumannii, A319",32 µg/mL
same,MIC,"[4]; Acinetobacter baumannii, A600 colR",32 µg/mL
same,MIC,"[4]; Acinetobacter baumannii, AB01335 adeG183::T26",4 µg/mL
same,MIC,"[4]; Acinetobacter baumannii, AB05215 adeS132::T26",2 µg/mL
same,MIC,"[4]; Acinetobacter baumannii, AB05218 adeS141::T26",4 µg/mL
same,MIC,"[4]; Acinetobacter baumannii, AB05219 adeR103::T26",4 µg/mL
same,MIC,"[4]; Acinetobacter baumannii, AB05222 adeR160::T101",2 µg/mL
same,MIC,"[4]; Acinetobacter baumannii, AB05226 adeA165::T26",4 µg/mL
same,MIC,"[4]; Acinetobacter baumannii, AB05227 adeA138::T26",2 µg/mL
same,MIC,"[4]; Acinetobacter baumannii, AB05228 adeB150::T26",2 µg/mL
same,MIC,"[4]; Acinetobacter baumannii, AB05230 adeB181::T26",2 µg/mL
same,MIC,"[4]; Acinetobacter baumannii, BAA1709, BAA-1709, read-out: MIC",0.25 µg/mL
same,MIC,"[4]; Acinetobacter baumannii, BAA1710, BAA-1710 (AYE), read-out: MIC",64 µg/mL
same,MIC,"[4]; Acinetobacter baumannii, BAA2093, BAA-2093, read-out: MIC",≤ 0.125 µg/mL
same,MIC,"[4]; Acinetobacter baumannii, NCTC10303, NCTC 10303, read-out: MIC",0.5 µg/mL
same,MIC,"[4]; Acinetobacter baumannii, NCTC12156, NCTC 12156, read-out: MIC",1 µg/mL
same,MIC,"[4]; Acinetobacter baumannii, NCTC13302, NCTC 13302, oxa24, read-out: MIC",32 µg/mL
same,MIC,"[4]; Acinetobacter baumannii, NCTC13424, NCTC 13424, oxa23",> 128 µg/mL
same,MIC,"[4]; Acinetobacter baumannii, UKA1, oxa23, read-out: MIC",8 µg/mL
same,MIC,"[4]; Acinetobacter baumannii, UKA2, Low resistance, read-out: MIC",64 µg/mL
same,MIC,"[4]; Acinetobacter baumannii, UKA9, read-out: MIC",0.25 µg/mL
same,MIC,"[4]; Acinetobacter baumannii, UKA12, oxa23",> 128 µg/mL
same,MIC,"[4]; Acinetobacter baumannii, UKA13, oxa23",> 128 µg/mL
same,MIC,"[4]; Acinetobacter baumannii, UKA15, oxa23, read-out: MIC",16 µg/mL
same,MIC,"[4]; Acinetobacter baumannii, UKA19, read-out: MIC",8 µg/mL
same,MIC,"[4]; Acinetobacter baumannii, W1, read-out: MIC",128 µg/mL
same,MIC50,"[4]; Acinetobacter baumannii, panel of 25 A. baumannii strains",32 µg/mL
same,MIC,"[4]; BAA-1710 (AYE), listed as 1",> 128 µg/mL
same,MIC,[5]; NCTC 13437,64 µg/mL
same,MIC,"[5]; Pseudomonas aeruginosa, PAO1, PAO1",0.25 µg/mL
same,MIC,[6]; 319238/UR,> 128 µg/mL
same,MIC,[6]; LEC077,0.25 µg/mL
same,MIC,[6]; LEC081,0.25 µg/mL
same,MIC +50 (0.25x MIC),[7]; A. baumannii ATCC 17978,0.0017 to 0.188 µg/mL
same,MIC +50 (0.5x MIC),[7]; A. baumannii ATCC 17978,0.007 to 0.055 µg/mL
same,MIC +50 (0.25x MIC),[7]; A. baumannii AYE,3.5 to 15.5 µg/mL
same,MIC +50 (0.5x MIC),[7]; A. baumannii AYE,0.188 to 0.9 µg/mL
same,MIC,"[7]; ATCC17978, read-out: MIC alone",0.25 µg/mL
same,MIC,[7]; read-out: MIC alone,64 µg/mL
same,time-kill profile,[8],comparable bacteriostatic profiles
